Assay results: ChEMBL document CHEMBL3621140, “Sulfonamide derivatives containing dihydropyrazole moieties selectively and potently inhibit MMP-2/MMP-9: Design, synthesis, inhibitory activity and 3D-QSAR analysis” (Bioorg Med Chem Lett, 2015)

Experiments:
MCF7 = assay: Antiproliferative activity against human MCF7 cells incubated for 48 hrs by MTT assay; type: functional, cell-based; conditions: MCF7, 48 h
HeLa = assay: Antiproliferative activity against human HeLa cells incubated for 48 hrs by MTT assay; type: functional, cell-based
HepG2 = assay: Antiproliferative activity against human HepG2 cells incubated for 48 hrs by MTT assay; type: functional, cell-based; conditions: HepG2, 48 h
[1] = molecular target: 72 kDa type IV collagenase (Homo sapiens, UniProt P08253); assay: Inhibition of APMA-activated human recombinant MMP2 incubated for 5 mins using 4-nitrophenylacetate substrate by esterase assay
Sequence of 72 kDa type IV collagenase (P08253 whole entry): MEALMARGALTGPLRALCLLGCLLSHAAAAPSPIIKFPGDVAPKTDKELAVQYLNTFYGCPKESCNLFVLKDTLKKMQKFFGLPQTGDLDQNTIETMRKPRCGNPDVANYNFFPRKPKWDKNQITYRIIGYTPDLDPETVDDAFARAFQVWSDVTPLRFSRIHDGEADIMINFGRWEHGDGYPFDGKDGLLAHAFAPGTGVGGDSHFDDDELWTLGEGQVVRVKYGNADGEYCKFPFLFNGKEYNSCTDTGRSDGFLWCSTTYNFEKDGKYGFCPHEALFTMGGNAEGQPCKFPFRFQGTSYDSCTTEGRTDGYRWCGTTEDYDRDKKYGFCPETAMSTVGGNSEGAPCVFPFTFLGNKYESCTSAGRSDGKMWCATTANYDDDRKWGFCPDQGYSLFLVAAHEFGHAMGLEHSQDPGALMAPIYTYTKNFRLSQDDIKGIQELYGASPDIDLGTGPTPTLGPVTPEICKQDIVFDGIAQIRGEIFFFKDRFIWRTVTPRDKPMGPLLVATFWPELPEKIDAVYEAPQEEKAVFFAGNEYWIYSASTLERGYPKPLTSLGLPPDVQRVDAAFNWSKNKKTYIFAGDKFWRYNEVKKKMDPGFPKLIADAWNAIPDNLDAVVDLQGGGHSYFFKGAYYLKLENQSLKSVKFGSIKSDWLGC

[2] = molecular target: Matrix metalloproteinase-9 (Homo sapiens, UniProt P14780); assay: Inhibition of APMA-activated human recombinant MMP9 incubated for 5 mins using 4-nitrophenylacetate substrate by esterase assay
Sequence of Matrix metalloproteinase-9 (P14780 whole entry): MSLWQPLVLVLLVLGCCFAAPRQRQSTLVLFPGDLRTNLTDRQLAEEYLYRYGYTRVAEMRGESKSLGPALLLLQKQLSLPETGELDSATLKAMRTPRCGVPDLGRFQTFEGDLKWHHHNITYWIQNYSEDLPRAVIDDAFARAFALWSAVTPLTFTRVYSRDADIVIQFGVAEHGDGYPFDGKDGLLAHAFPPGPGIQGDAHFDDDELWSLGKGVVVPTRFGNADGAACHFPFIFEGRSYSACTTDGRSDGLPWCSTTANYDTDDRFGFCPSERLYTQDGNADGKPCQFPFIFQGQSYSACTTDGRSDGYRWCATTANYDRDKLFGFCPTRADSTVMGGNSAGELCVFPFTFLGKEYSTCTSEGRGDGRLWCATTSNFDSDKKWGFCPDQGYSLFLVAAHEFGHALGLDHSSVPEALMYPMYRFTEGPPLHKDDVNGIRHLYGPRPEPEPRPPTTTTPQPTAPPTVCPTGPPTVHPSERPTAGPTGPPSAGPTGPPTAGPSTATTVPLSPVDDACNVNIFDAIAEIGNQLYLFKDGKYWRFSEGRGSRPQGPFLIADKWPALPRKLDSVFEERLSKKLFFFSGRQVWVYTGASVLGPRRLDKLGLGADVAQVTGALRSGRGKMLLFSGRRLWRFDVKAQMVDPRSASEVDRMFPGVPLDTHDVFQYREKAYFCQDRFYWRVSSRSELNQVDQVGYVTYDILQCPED

[3] = Cytotoxicity against HEK293T cells incubated for 48 hrs by MTT assay; type: cell-based, HEK-293T; conditions: human
A549 [4] = assay: cells; conditions: Homo sapiens, A549, 48 h
A549 [5] = assay: Induction of apoptosis in human A549 cells assessed as viable cells at 16 uM by AnnexinV-FITC and propidium iodide staining based flow cytometry (reference value: 85.3%); type: functional; conditions: read-out: Activity
A549 [6] = assay: Induction of apoptosis in human A549 cells assessed as early apoptotic cells level at 16 uM by AnnexinV-FITC and propidium iodide staining based flow cytometry (reference value: 5.08%); type: functional
A549 [7] = assay: Induction of apoptosis in human A549 cells assessed as late apoptotic cells level at 16 uM by AnnexinV-FITC and propidium iodide staining based flow cytometry (reference value: 8.81%); type: functional
A549 [8] = assay: Induction of apoptosis in human A549 cells assessed as necrotic cells level at 16 uM by AnnexinV-FITC and propidium iodide staining based flow cytometry (reference value: 0.964%); type: functional
A549 [9] = assay: Induction of apoptosis in human A549 cells assessed as viable cells at 4 uM by AnnexinV-FITC and propidium iodide staining based flow cytometry (reference value: 85.3%); type: functional; conditions: read-out: Activity
A549 [10] = assay: Induction of apoptosis in human A549 cells assessed as early apoptotic cells level at 4 uM by AnnexinV-FITC and propidium iodide staining based flow cytometry (reference value: 5.08%); type: functional
A549 [11] = assay: Induction of apoptosis in human A549 cells assessed as late apoptotic cells level at 4 uM by AnnexinV-FITC and propidium iodide staining based flow cytometry (reference value: 8.81%); type: functional
A549 [12] = assay: Induction of apoptosis in human A549 cells assessed as necrotic cells level at 4 uM by AnnexinV-FITC and propidium iodide staining based flow cytometry (reference value: 0.964%); type: functional
A549 [13] = assay: Induction of apoptosis in human A549 cells assessed as viable cells at 2 uM by AnnexinV-FITC and propidium iodide staining based flow cytometry (reference value: 85.3%); type: functional; conditions: read-out: Activity
A549 [14] = assay: Induction of apoptosis in human A549 cells assessed as early apoptotic cells level at 2 uM by AnnexinV-FITC and propidium iodide staining based flow cytometry (reference value: 5.08%); type: functional
A549 [15] = assay: Induction of apoptosis in human A549 cells assessed as late apoptotic cells level at 2 uM by AnnexinV-FITC and propidium iodide staining based flow cytometry (reference value: 8.81%); type: functional
A549 [16] = assay: Induction of apoptosis in human A549 cells assessed as necrotic cells level at 2 uM by AnnexinV-FITC and propidium iodide staining based flow cytometry (reference value: 0.964%); type: functional
A549 [17] = assay: Induction of apoptosis in human A549 cells by AnnexinV-FITC and propidium iodide staining based flow cytometry; type: functional, cell-based

Row | Structure (SMILES) | IC50 (MCF7) [µM] | IC50 (HeLa) [µM] | IC50 (HepG2) [µM] | IC50 ([1]; read-out: IC50) [µM] | IC50 [2] [µM] | CC50 at 48 h [3] [µM] | IC50 (A549 [4]) [µM] | also measured
1 | NS(=O)(=O)c1ccc(N2N=C(c3cccc(I)c3)CC2c2ccc3ccccc3c2)cc1 (centres undefined) | 11.1 | 32 | 18.1 | 15.7 | 6.91 | 55.9 | 12 | 
2 | COc1cc2ncnc(Nc3ccc(F)c(Cl)c3)c2cc1OCCCN1CCOCC1 [GEFITINIB] |  |  |  |  |  |  | 2.86 | 
3 | NS(=O)(=O)c1ccc(N2N=C(c3ccc(F)cc3)CC2c2ccc3ccccc3c2)cc1 (centres undefined) | 12.3 | 26.1 | 20.7 | 16.8 | 19.8 | 49.5 | 6.95 | 
4 | COc1cccc(C2=NN(c3ccc(S(N)(=O)=O)cc3)C(c3ccc4ccccc4c3)C2)c1 (centres undefined) | 13.6 | 36.5 | 26 | 2.15 | 4.68 | 49.4 | 8.67 | 
5 | NS(=O)(=O)c1ccc(N2N=C(c3cccc(Br)c3)CC2c2ccc3ccccc3c2)cc1 (centres undefined) | 9.15 | 23.7 | 29 | 17.8 | 13.9 | 47 | 10.3 | 
6 | CCOc1ccc(C2=NN(c3ccc(S(N)(=O)=O)cc3)C(c3ccc4ccccc4c3)C2)cc1 (centres undefined) | 38.2 | 35.4 | 9.17 | 14.9 | 18.3 | 53.8 | 17.8 | 
7 | COc1ccc(C2=NN(c3ccc(S(N)(=O)=O)cc3)C(c3ccc4ccccc4c3)C2)cc1 (centres undefined) | 50.6 | 35.4 | 22.3 | 9.9 | 19 | 45.4 | 9.31 | 
8 | CCOc1ccc(C2=NN(c3ccc(S(N)(=O)=O)cc3)C(c3cccc4ccccc34)C2)cc1 (centres undefined) | 35.1 | 18.5 | 8.66 | 0.81 | 3.19 | 59.5 | 3.33 | 
9 | Cc1ccc(-c2cc(C(F)(F)F)nn2-c2ccc(S(N)(=O)=O)cc2)cc1 [CELECOXIB] | 6.88 | 7.55 | 0.76 |  |  | 54.4 | 2.15 | 
10 | Cc1ccc(C2=NN(c3ccc(S(N)(=O)=O)cc3)C(c3cccc4ccccc34)C2)cc1 (centres undefined) | 9.89 | 8.61 | 7.04 | 6.81 | 16 | 51.3 | 7.77 | 
11 | NS(=O)(=O)c1ccc(N2N=C(c3cccc(F)c3)CC2c2ccc3ccccc3c2)cc1 (centres undefined) | 13.1 | 21.1 | 24.8 | 23.8 | 5.96 | 49 | 7.83 | 
12 | NS(=O)(=O)c1ccc(N2N=C(c3ccccc3Cl)CC2c2ccc3ccccc3c2)cc1 (centres undefined) | 8.64 | 16.4 | 31.1 | 14.8 | 8.72 | 49.9 | 2.16 | 
13 | NS(=O)(=O)c1ccc(N2N=C(c3cccc(I)c3)CC2c2cccc3ccccc23)cc1 (centres undefined) | 18.1 | 26 | 8.06 | 9.43 | 12.9 | 46.9 | 6.83 | 
14 | Cc1ccccc1C1=NN(c2ccc(S(N)(=O)=O)cc2)C(c2ccc3ccccc3c2)C1 (centres undefined) | 16.3 | 15.6 | 6.88 | 11.4 | 7.91 | 51.7 | 6.84 | 
15 | Cc1cccc(C2=NN(c3ccc(S(N)(=O)=O)cc3)C(c3ccc4ccccc4c3)C2)c1 (centres undefined) | 11.1 | 26.4 | 7.68 | 3.86 | 5.92 | 52.4 | 7.64 | 
16 | NS(=O)(=O)c1ccc(N2N=C(c3cccc(Br)c3)CC2c2cccc3ccccc23)cc1 (centres undefined) | 28.8 | 28.8 | 14.9 | 11.4 | 7.97 | 42.2 | 8.19 | IC50 ([1]; read-out: pIC50 (converted)): 11.2 µM
17 | COc1cccc(C2=NN(c3ccc(S(N)(=O)=O)cc3)C(c3cccc4ccccc34)C2)c1 (centres undefined) | 26.1 | 30.6 | 36.4 | 4.83 | 6.72 | 45.3 | 5.82 | 
18 | Cc1ccc(C2=NN(c3ccc(S(N)(=O)=O)cc3)C(c3cccc4ccccc34)C2)c(C)c1 (centres undefined) | 18.1 | 12.1 | 6.99 | 0.21 | 1.87 | 52.5 | 1.9 | viability at 16 µM (A549 [5]): 78.3%; Activity (A549 [6]): 3.88%; Activity (A549 [7]): 16.9%; Activity (A549 [8]): 0.868%; viability at 4 µM (A549 [9]): 81.1%; Activity (A549 [10]): 4.84%; Activity (A549 [11]): 12.9%; Activity (A549 [12]): 1.14%; viability at 2 µM (A549 [13]): 82.8%; Activity (A549 [14]): 5.91%; Activity (A549 [15]): 10.2%; Activity (A549 [16]): 1.1%; Activity (A549 [17]): Dose-dependent effect
19 | Cc1ccccc1C1=NN(c2ccc(S(N)(=O)=O)cc2)C(c2cccc3ccccc23)C1 (centres undefined) | 10 | 6.37 | 5.38 | 2.91 | 5.43 | 51.2 | 2.84 | 
20 | C[C@@]1(O)c2cccc(O)c2C(=O)C2=C(O)[C@]3(O)C(=O)C(C(N)=O)=C(O)C[C@@H]3C[C@@H]21 |  |  |  | 1.26 | 2.52 |  |  | 
21 | Cc1cccc(C2=NN(c3ccc(S(N)(=O)=O)cc3)C(c3cccc4ccccc34)C2)c1 (centres undefined) | 8.63 | 9.87 | 5.83 | 3.24 | 4.29 | 48.2 | 3.14 | 
22 | NS(=O)(=O)c1ccc(N2N=C(c3ccccc3Cl)CC2c2cccc3ccccc23)cc1 (centres undefined) | 23.6 | 29.1 | 10 | 8.63 | 12 | 53.1 | 7.38 | IC50 ([1]; read-out: pIC50 (converted)): 8.51 µM
23 | NS(=O)(=O)c1ccc(N2N=C(c3ccc(Cl)cc3)CC2c2cccc3ccccc23)cc1 (centres undefined) | 18 | 11.5 | 16.4 | 2.7 | 5.47 | 49.2 | 2.98 | 
24 | NS(=O)(=O)c1ccc(N2N=C(c3ccccc3)CC2c2ccc3ccccc3c2)cc1 (centres undefined) | 21.6 | 13 | 17.9 | 12.6 | 33.8 | 50.5 | 8.42 | 
25 | COc1ccc(C2=NN(c3ccc(S(N)(=O)=O)cc3)C(c3cccc4ccccc34)C2)cc1 (centres undefined) | 26.4 | 30.1 | 27.8 | 4.27 | 8.61 | 47.1 | 6.51 | IC50 ([1]; read-out: pIC50 (converted)): 4.17 µM
26 | Cc1ccc(C2=NN(c3ccc(S(N)(=O)=O)cc3)C(c3ccc4ccccc4c3)C2)cc1 (centres undefined) | 18.2 | 17.6 | 8.32 | 2.81 | 4.95 | 53.1 | 6.9 | 
27 | NS(=O)(=O)c1ccc(N2N=C(c3ccccc3)CC2c2cccc3ccccc23)cc1 (centres undefined) | 22.6 | 20.2 | 19.1 | 7.92 | 10.9 | 51.4 | 12.9 | 
28 | NS(=O)(=O)c1ccc(N2N=C(c3ccc(Cl)cc3)CC2c2ccc3ccccc3c2)cc1 (centres undefined) | 12.4 | 19.2 | 25 | 3.6 | 5.88 | 54.8 | 2.76 | 
